Here are results for one compound from BindingDB's records for doi:10.7270/Q2959KQ0 (n/a, 1993).

This experiment deals with T1, 5-hydroxytryptamine receptor 3A/3B (Rattus norvegicus, UniProt P35563+Q9JJ16).
T1 sequence (P35563 whole entry): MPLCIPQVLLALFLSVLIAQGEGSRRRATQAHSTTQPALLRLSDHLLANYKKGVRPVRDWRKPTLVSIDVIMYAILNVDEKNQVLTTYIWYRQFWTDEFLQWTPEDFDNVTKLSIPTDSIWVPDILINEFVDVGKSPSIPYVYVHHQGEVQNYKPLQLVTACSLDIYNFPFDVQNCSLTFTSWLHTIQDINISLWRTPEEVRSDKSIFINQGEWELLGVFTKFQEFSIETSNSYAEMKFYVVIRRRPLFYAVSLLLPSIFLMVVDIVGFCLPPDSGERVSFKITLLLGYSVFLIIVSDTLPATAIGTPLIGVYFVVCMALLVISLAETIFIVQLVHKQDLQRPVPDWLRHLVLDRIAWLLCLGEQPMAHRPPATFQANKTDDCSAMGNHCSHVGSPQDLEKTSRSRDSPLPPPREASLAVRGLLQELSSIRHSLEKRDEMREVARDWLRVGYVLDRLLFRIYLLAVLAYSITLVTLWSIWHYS
T1 sequence (Q9JJ16 whole entry): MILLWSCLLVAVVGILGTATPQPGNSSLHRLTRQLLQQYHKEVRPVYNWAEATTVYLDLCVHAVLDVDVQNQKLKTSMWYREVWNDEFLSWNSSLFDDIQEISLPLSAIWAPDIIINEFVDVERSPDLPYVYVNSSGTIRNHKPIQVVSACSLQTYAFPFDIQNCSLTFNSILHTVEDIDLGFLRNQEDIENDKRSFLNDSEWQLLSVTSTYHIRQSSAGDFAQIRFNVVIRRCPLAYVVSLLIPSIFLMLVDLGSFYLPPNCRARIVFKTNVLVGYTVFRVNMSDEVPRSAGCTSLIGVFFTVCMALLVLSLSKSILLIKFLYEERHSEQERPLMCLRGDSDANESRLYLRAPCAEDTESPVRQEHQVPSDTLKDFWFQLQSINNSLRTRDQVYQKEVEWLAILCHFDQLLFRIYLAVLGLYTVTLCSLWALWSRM
Nature of the experiment: Binding affinity to 5-hydroxytryptamine 3 receptor was determined in rat cerebro cortical membranes using [3H]quipazine.

In turn, `COc1cc(N)c(Cl)cc1C(=O)N[C@H]1CN2CCC1CC2` [4-Amino-N-(R)-1-aza-bicyclo[2.2.2]oct-3-yl-5-chloro-2-methoxy-benzamide] showed a Ki of 3.2 nM.

In general, Ki refers to the dissociation constant of the complex between target and ligand, obtained from inhibition or displacement. A higher Ki goes with lower affinity.
